“Also recorded” adds a separate entry of the source.
Assays:
[1] = system: hypocotyl explants of tomato cultivar Ailsa Craig; experiment: Callus formation of tomato hypocotyl explants on callus-inducing medium (CIM); assay type: cell-based
Method: FIG. 6—(a) Hypocotyl explants of WT (Ailsa Craig, AC) and prr mutants were cultured on callus-inducing medium (CIM) in the absence of SIPEP (REF1) and CIM REF1 at a concentration of 1 nM for 14 days, photographs of the callus formation of these plants are shown. (b) The distribution of projected callus area of WT and prr mutants grown in the absence of REF1 in a callus inducing medium (control) and in a callus inducing medium in the presence of 1 nM SIPEP (REF1). The projected area of callus was quantified by Image J. Individual values (black dots) are shown and error bars represent SD from three independent experiments.
FIG. 9—Hypocotyl explants of WT (Ailsa Craig, AC) were cultured on callus-inducing medium (CIM) containing indicated concentrations of REF1, and callus phenotype was scored 14 days after incubation. […] The projected area of callus was quantified by Image J. Individual values (black dots) are shown and error bars represent SD from three independent experiments. ***P<0.001, **P<0.01, *P<0.05 (Student's t-test).
Relative callus area was determined by quantifying the area of each callus using ImageJ, the average of each group was calculated, for each group this was then divided by the average of the control group.
To further test whether SIPEP (REF1) is a wound signal promoting regeneration in tomato, wild type, prr-1 and prr-2 Aisla Craig hypocotyl explants were cultured on a callus inducing medium in the presence and absence of SIPEP (REF1) at 1 nM. The callus phenotype was then scored at 14 days after incubation (FIG. 6), here it can be seen that presence of 1 nM REF1 in the medium increased callus area in all explants tested, crucially, the relative callus area of prr-1 and prr-2 was restored when REF1 was present in the medium.
To test the effect of the dose of SIPEP (REF1) on callus formation hypocotyl explants of WT (Ailsa Craig) were cultured on callus-inducing medium (CIM) containing indicated concentrations of REF1 in FIG. 9 (mock with 0, 10^−4, 10^−3, […], 1, and 10 nM) and callus phenotype was scored 14 days after incubation. Box plots represent the distribution of projected callus area.
Callus formation was measured in RER knock out mutants (rer-1 and rer-3) compared to wild type (WT) tomato plants (Ailsa Craig) in the presence and absence of SIPEP (REF1). […] Here it can be seen that callus area was highest in WT plant grown with REF1, as REF1 induces callus formation, as shown in Examples 2 and 4.

[2] = system: ectodomains of RER; experiment: Pull-down assay with HA-Flag-tagged RER ectodomains and biotinylated peptides; assay type: binding, tomato; conditions: biotinylated peptide
[3] = system: RER; experiment: Autophosphorylation assay of RER in tobacco leaves; assay type: cell-based, tomato; conditions: 100 nM, 20 min
[4] = system: RER; experiment: pFRK1::LUC expression in A. thaliana protoplasts (receptor activation); assay type: cell-based, tomato; conditions: 3 h
Method: Data are mean±SD, n=3 repeats. […] Data are mean±SD, n=3 repeats.
Receptor activation was tested by using FRK1 expression as a marker gene. […] Data are mean±SD, n=3 repeats. ***P<0.001 (Student's t test); ns, not significant FRK-Luciferase expression was used as a marker to test REF1 binding-mediated activation of its receptor. Based on these assay, the EC50 was calculated (half-maximal stimulation) of REF1-receptor binding as an assessment of the binding affinity of REF1 to its receptor RER.

[5] = system: serk and sIwind1 mutant hypocotyl explants; experiment: Callus formation and shoot organogenesis of serk and sIwind1 mutant hypocotyl explants; assay type: cell-based, tomato; conditions: 1 nM REF1
Method: FIG. 49—REF1-RER1 regulates regeneration through SERK co-receptors. (a) RER1 complexes with SERK1, SERK3a and SERK3b in a REF1-dependent manner. Tobacco leaves transfected with SERKs-myc and RER1-HA-Flag were treated with 100 nM REF1 before IP with anti-myc agarose. RER1 and SERKs were detected by immunoblotting with anti-Flag or anti-myc antibodies, respectively. (b and c) REF1-induced callus formation of indicated genotypes. Hypocotyl explants were cultured on CIM with or without 1 nM REF1 for 14 d before callus phenotype was scored. Shown are representative callus images (b) and quantification of the callus projection area (c). Bars, 1 mm. Data are mean±SE. n=30 hypocotyl explants. […] Hypocotyl explants were cultured on CIM for 14 d and then transferred to SIM with or without 1 nM REF1 for 21d before shoot organogenesis phenotype was scored. […] In (c), the projected area of callus was quantified by Image J. Box plots represented the distribution of projected callus area. […] In (c) and (e), data points from three biological replicates were analysed with a one-sided Kruskal-Wallis test with Holm correction, followed by post hoc Dunn's test. […]
(a) Induction of the SIWIND1 promoter activity at the wound sites of hypocotyl explants. […] Hypocotyl explants were cultured on CIM with or without 1 nM REF1 for 14 d before callus phenotype was scored. […]

Sequence of RER (as listed by the source): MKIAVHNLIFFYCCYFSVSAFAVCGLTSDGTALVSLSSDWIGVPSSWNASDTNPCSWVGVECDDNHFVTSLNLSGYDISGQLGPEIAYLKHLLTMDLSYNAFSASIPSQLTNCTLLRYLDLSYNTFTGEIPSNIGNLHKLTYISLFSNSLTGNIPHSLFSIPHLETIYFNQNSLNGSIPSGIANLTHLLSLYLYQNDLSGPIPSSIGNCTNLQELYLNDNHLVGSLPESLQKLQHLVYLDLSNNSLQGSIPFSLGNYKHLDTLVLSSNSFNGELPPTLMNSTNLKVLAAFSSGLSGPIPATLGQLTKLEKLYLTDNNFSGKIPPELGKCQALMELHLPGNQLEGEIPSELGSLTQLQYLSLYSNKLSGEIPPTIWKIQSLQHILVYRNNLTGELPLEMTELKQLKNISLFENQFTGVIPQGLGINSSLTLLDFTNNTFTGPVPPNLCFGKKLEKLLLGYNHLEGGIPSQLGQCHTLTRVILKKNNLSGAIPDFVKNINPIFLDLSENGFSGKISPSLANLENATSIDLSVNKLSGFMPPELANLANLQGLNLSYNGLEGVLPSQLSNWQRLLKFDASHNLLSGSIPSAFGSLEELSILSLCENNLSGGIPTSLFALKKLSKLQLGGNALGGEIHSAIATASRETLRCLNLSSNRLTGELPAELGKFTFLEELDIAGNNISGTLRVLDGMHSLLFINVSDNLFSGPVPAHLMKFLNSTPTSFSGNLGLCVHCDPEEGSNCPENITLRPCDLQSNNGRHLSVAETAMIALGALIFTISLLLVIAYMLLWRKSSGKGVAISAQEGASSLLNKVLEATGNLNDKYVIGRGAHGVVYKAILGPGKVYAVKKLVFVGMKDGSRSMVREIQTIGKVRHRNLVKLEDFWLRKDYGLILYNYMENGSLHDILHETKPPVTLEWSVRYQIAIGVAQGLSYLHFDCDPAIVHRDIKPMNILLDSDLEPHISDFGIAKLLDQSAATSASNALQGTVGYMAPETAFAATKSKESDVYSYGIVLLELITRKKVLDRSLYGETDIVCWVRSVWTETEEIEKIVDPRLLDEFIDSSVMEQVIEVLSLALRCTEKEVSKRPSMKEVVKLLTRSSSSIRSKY
Sequence of ectodomains of RER (as listed by the source): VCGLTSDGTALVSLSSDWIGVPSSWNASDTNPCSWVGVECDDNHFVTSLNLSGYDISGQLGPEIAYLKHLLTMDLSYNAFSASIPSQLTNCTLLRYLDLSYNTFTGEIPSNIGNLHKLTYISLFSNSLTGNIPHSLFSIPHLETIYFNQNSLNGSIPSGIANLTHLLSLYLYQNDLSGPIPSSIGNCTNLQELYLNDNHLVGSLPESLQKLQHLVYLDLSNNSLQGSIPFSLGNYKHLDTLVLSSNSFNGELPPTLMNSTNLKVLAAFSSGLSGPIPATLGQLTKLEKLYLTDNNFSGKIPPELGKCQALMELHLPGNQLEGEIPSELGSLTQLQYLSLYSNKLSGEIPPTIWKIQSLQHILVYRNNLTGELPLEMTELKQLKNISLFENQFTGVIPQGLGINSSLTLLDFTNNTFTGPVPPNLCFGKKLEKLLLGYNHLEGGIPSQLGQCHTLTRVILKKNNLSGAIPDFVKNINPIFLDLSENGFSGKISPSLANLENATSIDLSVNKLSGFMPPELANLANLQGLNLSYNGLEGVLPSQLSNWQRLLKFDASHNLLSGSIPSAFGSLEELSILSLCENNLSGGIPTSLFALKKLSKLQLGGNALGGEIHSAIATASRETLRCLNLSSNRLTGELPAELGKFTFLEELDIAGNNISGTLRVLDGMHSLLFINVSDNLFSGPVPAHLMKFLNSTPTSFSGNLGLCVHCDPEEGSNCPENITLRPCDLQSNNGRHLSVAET

binding to RER ectodomain (pull-down) [2]: binds
binding-mediated activation of receptor RER (pFRK1::LUC expression) ([4]; 100 nM): bound
binding affinity of REF1 to its receptor RER ([4]; indicated concentrations): high affinity
Sequence: ATDRRGRPPSRPKVGSGPPPQNN (listed as Solanum lycopersicum) [REF1, 23 amino acid tomato peptide cleaved from precursor PROSIPEP]
optimum concentration to maximize callus formation ([1]; WT Ailsa Craig explants, CIM, 14 days): 1 nM
relative callus area ([1]; WT Ailsa Craig, 10 nM REF1 compared with 1 nM): sharp decrease
relative callus area ([1]; WT Ailsa Craig, CIM with 1 nM REF1 vs without, 14 days): induced larger callus areas; also recorded: highest
relative callus area, dose dependence ([1]; WT Ailsa Craig, CIM, mock to 10 nM REF1, 14 days): increased in a dose dependent manner
relative callus area ([1]; prr-1 and prr-2 mutants, CIM with 1 nM REF1, 14 days): restored
REF1 induced callus formation (relative callus area) ([1]; rer-1 and rer-3 knockouts, presence vs absence of REF1): failing to lead to any increase; also recorded: defective
auto-phosphorylation of RER [3]: triggers auto-phosphorylation
rescue of compromised regenerative capacity ([5]; sIwind1 mutants): could not be rescued
rescue of regenerative defects (callus formation, shoot organogenesis) ([5]; serk3a-1, serk3b-1 and serk3a-1 serk3b-1 mutants): failed to rescue
